Among the data in patent publication US20100227859A1, “TRICYCLIC COMPOUNDS AS MATRIX METALLOPROTEINASE INHIBITORS” (priority 2007, published 2010) are IC50 values, retold here.

As usually defined, the IC50 is the concentration at which inhibition is half-maximal. The low end stands for greater potency in that assay, the high end for weaker potency in that assay.

purified human MMP-12 enzyme, sequence (P39900 106-470): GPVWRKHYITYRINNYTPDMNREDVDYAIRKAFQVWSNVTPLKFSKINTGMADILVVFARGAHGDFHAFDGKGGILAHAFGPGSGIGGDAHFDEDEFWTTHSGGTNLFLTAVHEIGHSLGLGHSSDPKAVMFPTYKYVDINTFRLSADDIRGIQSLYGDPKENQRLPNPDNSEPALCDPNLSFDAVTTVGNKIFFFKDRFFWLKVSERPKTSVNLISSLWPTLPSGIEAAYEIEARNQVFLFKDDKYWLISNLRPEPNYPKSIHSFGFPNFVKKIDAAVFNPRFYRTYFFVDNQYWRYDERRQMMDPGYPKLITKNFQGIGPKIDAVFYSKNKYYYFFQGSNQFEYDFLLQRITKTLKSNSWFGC

This assay concerns the target purified human MMP-12 enzyme (Homo sapiens, UniProt P39900). The experiment in a line: MMP-12 FRET assay. The format is biochemical. As to conditions: substrate 20 μM, room temperature. The protocol: Compounds according to the present teachings were tested in an MMP-12 FRET assay as follows. To each well of black polystyrene 96-well plate was added assay buffer (50 mM HEPES (pH 7.4), 100 mM NaCl, 5 mM CaCl2 and 0.005% Brij-35 (Polyoxyethyleneglycol dodecyl ether, Pierce cat#20150), purified human MMP-12 enzyme, and varied concentrations of test compounds (prepared by serial dilution of a stock solution in 100% DMSO). The plates were incubated at room temperature for 30 minutes. The enzymatic reactions were initiated by addition of a substrate, MCA-Pro-Leu-Gly-Leu-Dpa(DNP)-Ala-Arg, containing a fluorescent group (7-methoxycoumarin, MCA) and a 2,4-dinitrophenyl group (DNP), to a final concentration of 20 μM. The final DMSO concentration in the assay was 10%. The reaction was monitored for 30 minutes at room temperature and the initial rate of the cleavage reaction was determined using a fluorescence plate reader (λex: 325 nm, λem: 395 nm). Plots of the inhibitor concentration vs. the initial cleavage rate were fit to the following equation: y=Vmax*(1−(x^n/(K^n+x^n))), whereby x=inhibitor concentration, y=initial rate, Vmax=initial rate in the absence of inhibitor, n=slope factor, and K=IC50 for the inhibition curve.
Molecule `CC(C)[C@@H](NS(=O)(=O)c1ccc2c(c1)oc1ccc(-c3ccc4c(c3)C(C)(C)OC(=O)N4)cc12)C(=O)O` [Compound 1, (R)-2-(8-(4,4-dimethyl-2-oxo-2,4-dihydro-1H-benzo[d][1,3]oxazin-6-yl)dibenzo[b,d]furan-3-sulfonamido)-3-methylbutanoic acid] gave an IC50 of 11 nM.
The figure for `CC(C)[C@H](NS(=O)(=O)c1ccc2c(c1)oc1ccc(-c3ccc4oc5cc(S(=O)(=O)N[C@H](C(=O)O)C(C)C)ccc5c4c3)cc12)C(=O)O` [Compound 125] is 17 nM; for `CC(C)[C@H](NS(=O)(=O)c1ccc2c(c1)oc1ccc(C3=NCCN3)cc12)C(=O)O` [Compound 77, (S)-2-(8-(4,5-dihydro-1H-imidazol-2-yl)dibenzo[b,d]furan-3-sulfonamido)-3-methylbutanoic acid] it is 23 nM.
In the case of `CC(C)[C@H](NS(=O)(=O)c1ccc2c(c1)oc1ccc(-c3occc3CN(C)C)cc12)C(=O)O` [Compound 48, (S)-2-(8-(3-((dimethylamino)methyl)furan-2-yl)dibenzo[b,d]furan-3-sulfonamido)-3-methylbutanoic acid] it was 118 nM; in that of `CC(C)[C@H](NS(=O)(=O)c1ccc2c(c1)oc1ccc(-c3ccncc3)cc12)C(=O)O` [Compound 16, (S)-3-methyl-2-(8-(pyridin-4-yl)dibenzo[b,d]furan-3-sulfonamido)butanoic acid], under 1.5 nM.
The figure for `CC(C)[C@H](NS(=O)(=O)c1ccc2c(c1)oc1cc(-c3nnn[nH]3)ccc12)C(=O)O` [Compound 250, (S)-2-(7-(1H-tetrazol-5-yl)dibenzo[b,d]furan-3-sulfonamido)-3-methylbutanoic acid] is 239 nM.
The molecule `Cc1cnc(-c2ccc3c(c2)oc2cc(S(=O)(=O)N[C@H](C(=O)O)C(C)C)ccc23)s1` [Compound 234, (S)-3-methyl-2-(7-(5-methylthiazol-2-yl)dibenzo[b,d]furan-3-sulfonamido)butanoic acid] registered an IC50 of under 1.5 nM.
The figure for `Cc1nc(CC(C)C)sc1-c1ccc2c(c1)oc1ccc(S(=O)(=O)N[C@@H](C(=O)O)C(C)C)cc12` [Compound 245, (R)-2-(7-(2-isobutyl-4-methylthiazol-5-yl)dibenzo[b,d]furan-2-sulfonamido)-3-methylbutanoic acid] is 13 nM; for `CC(C)[C@@H](NS(=O)(=O)c1ccc2oc3cc(-c4cc5ccccc5s4)ccc3c2c1)C(=O)O` [Compound 100, (R)-2-(7-(benzo[b]thiophen-2-yl)dibenzo[b,d]furan-2-sulfonamido)-3-methylbutanoic acid] it is 4.9 nM.
As to `CC(C)C[C@@H](NS(=O)(=O)c1ccc2oc3cc(-c4noc(C(C)(C)C)n4)ccc3c2c1)C(=O)O` [Compound 278, (R)-2-(7-(5-tert-butyl-1,2,4-oxadiazol-3-yl)dibenzo[b,d]furan-2-sulfonamido)-4-methylpentanoic acid], the IC50 was determined as 7.2 nM.
Regarding `CC(C)[C@H](NS(=O)(=O)c1ccc2c(c1)oc1ccc(C3=NCCO3)cc12)C(=O)O` [Compound 83, (S)-2-(8-(4,5-dihydrooxazol-2-yl)dibenzo[b,d]furan-3-sulfonamido)-3-methylbutanoic acid], inhibition was half-maximal at 2.8 nM (IC50).
The figure for `CC(C)[C@H](NS(=O)(=O)c1ccc2c(c1)oc1ccc(-c3ncc(CO)s3)cc12)C(=O)O` [Compound 215, (S)-2-(8-(5-(hydroxymethyl)thiazol-2-yl)dibenzo[b,d]furan-3-sulfonamido)-3-methylbutanoic acid] is 2.4 nM.
The figure for `COC(=O)C#Cc1ccc2oc3cc(S(=O)(=O)N[C@H](C(=O)O)C(C)C)ccc3c2c1` [Compound 6, (S)-2-(8-(3-methoxy-3-oxoprop-1-ynyl)dibenzo[b,d]furan-3-sulfonamido)-3-methylbutanoic acid] is 30.4 nM; for `Cc1n[nH]c(C)c1-c1ccc2sc3cc(S(=O)(=O)N[C@H](C(=O)O)C(C)C)ccc3c2c1` [Compound 41, (S)-2-(8-(3,5-dimethyl-1H-pyrazol-4-yl)dibenzo[b,d]thiophene-3-sulfonamido)-3-methylbutanoic acid] it is 77 nM; for `CC(C)[C@H](NS(=O)(=O)c1ccc2c(c1)oc1cc(C(=N)NO)ccc12)C(=O)O` [Compound 186, (S)-2-(7-(N-hydroxycarbamimidoyl)dibenzo[b,d]furan-3-sulfonamido)-3-methylbutanoic acid] it is 1.9 nM.
In the case of `CC(C)[C@H](NS(=O)(=O)c1ccc2c(c1)oc1ccc(-c3csc4ccccc34)cc12)C(=O)O` [Compound 12, (S)-2-(8-(benzo[b]thiophen-3-yl)dibenzo[b,d]furan-3-sulfonamido)-3-methylbutanoic acid] it was under 1.5 nM.
Take `CC(C)[C@H](NS(=O)(=O)c1ccc2c(c1)oc1ccc(-c3cncnc3)cc12)C(=O)O` [Compound 152, (S)-3-methyl-2-(8-(pyrimidin-5-yl)dibenzo[b,d]furan-3-sulfonamido)butanoic acid]: the concentration for half-maximal inhibition (IC50) was under 1.5 nM.
The figure for `CC(C)[C@H](NS(=O)(=O)c1ccc2c(c1)oc1ccc(-c3ccc(C(F)(F)F)cc3)cc12)C(=O)O` [Compound 311, (S)-3-methyl-2-(8-(4-(trifluoromethyl)phenyl)dibenzo[b,d]furan-3-sulfonamido)butanoic acid] is 2 nM.
The molecule `CC(C)(C)c1nc(-c2ccc3c(c2)oc2ccc(S(=O)(=O)N[C@H](C(=O)O)C(C)(C)C)cc23)no1` [Compound 282, (S)-2-(7-(5-tert-butyl-1,2,4-oxadiazol-3-yl)dibenzo[b,d]furan-2-sulfonamido)-3,3-dimethylbutanoic acid] showed a 50% inhibitory concentration (IC50) of 150 nM.
In the case of `CC(C)[C@H](NS(=O)(=O)c1ccc2c(c1)oc1cc(-c3noc(C(C)(C)C)n3)ccc12)C(=O)O` [Compound 155, (S)-2-(7-(5-tert-butyl-1,2,4-oxadiazol-3-yl)dibenzo[b,d]furan-3-sulfonamido)-3-methylbutanoic acid] it was 11 nM; in that of `CCN=C(NCC)c1ccc2oc3cc(S(=O)(=O)N[C@H](C(=O)O)C(C)C)ccc3c2c1` [Compound 109, (S)-2-(8-(N,N′-diethylcarbamimidoyl)dibenzo[b,d]furan-3-sulfonamido)-3-methylbutanoic acid], 640 nM.
For the molecule `Cc1nc(-c2ccc3c(c2)oc2ccc(S(=O)(=O)N[C@@H](C(=O)O)C(C)C)cc23)no1` [Compound 139, (R)-3-methyl-2-(7-(5-methyl-1,2,4-oxadiazol-3-yl)dibenzo[b,d]furan-2-sulfonamido)butanoic acid], the IC50 is 9.2 nM.
For the molecule `CC(C)[C@H](NS(=O)(=O)c1ccc2c(c1)oc1ccc(-c3ccc(C(C)N(C)C)s3)cc12)C(=O)O` (stereo partly drawn) [Compound 50, (S)-2-(8-(5-(1-(dimethylamino)ethyl)thiophen-2-yl)dibenzo[b,d]furan-3-sulfonamido)-3-methylbutanoic acid], the half-maximal inhibitory concentration (IC50) was determined as 5.7 nM.
The figure for “(R)-2-(7-(5-ethyl-1,2,4-oxadiazol-3-yl)dibenzo[b,d]furan-2-sulfonamido)-3-methylbutanoic acid [Compound 140]” is 3.8 nM; for `CC(C)[C@@H](NS(=O)(=O)c1ccc2sc3cc(-c4ccco4)ccc3c2c1)C(=O)O` [Compound 287, (R)-2-(7-(furan-2-yl)dibenzo[b,d]thiophene-2-sulfonamido)-3-methylbutanoic acid] it is 70 nM; for `COc1ncc(-c2ccc3c(c2)oc2ccc(S(=O)(=O)N[C@@H](C(=O)O)C(C)C)cc23)c(OC)n1` [Compound 115, (R)-2-(7-(2,4-dimethoxypyrimidin-5-yl)dibenzo[b,d]furan-2-sulfonamido)-3-methylbutanoic acid] it is 290 nM.
In turn, `CC(=O)c1ccc(-c2ccc3c(c2)oc2ccc(S(=O)(=O)N[C@@H](C(=O)O)C(C)C)cc23)s1` [Compound 105, (R)-2-(7-(5-acetylthiophen-2-yl)dibenzo[b,d]furan-2-sulfonamido)-3-methylbutanoic acid] registered an IC50 of 21.8 nM.
In the case of `Cc1nc(C)c(-c2ccc3oc4cc(S(=O)(=O)N[C@H](C(=O)O)C(C)C)ccc4c3c2)s1` [Compound 201, (S)-2-(8-(2,4-dimethylthiazol-5-yl)dibenzo[b,d]furan-3-sulfonamido)-3-methylbutanoic acid] it was under 1.5 nM.
In the case of `CC(C)[C@H](NS(=O)(=O)c1ccc2c(c1)oc1ccc(-c3ccc(Cl)s3)cc12)C(=O)O` [Compound 74, (S)-2-(8-(5-chlorothiophen-2-yl)dibenzo[b,d]furan-3-sulfonamido)-3-methylbutanoic acid] it was under 1.5 nM.
In the case of `CC(C)[C@@H](NS(=O)(=O)c1ccc2oc3cc(-c4nc5c(F)c(F)c(F)cc5s4)ccc3c2c1)C(=O)O` [Compound 300, (R)-3-methyl-2-(7-(4,5,6-trifluorobenzo[d]thiazol-2-yl)dibenzo[b,d]furan-2-sulfonamido)butanoic acid] it was 51 nM.
`CC(C)[C@H](NS(=O)(=O)c1ccc2c(c1)oc1cc(-c3ccc(Cl)s3)ccc12)C(=O)O` [Compound 84, (S)-2-(7-(5-chlorothiophen-2-yl)dibenzo[b,d]furan-3-sulfonamido)-3-methylbutanoic acid] showed an IC50 of under 1.5 nM.
Molecule `CC(C)(NS(=O)(=O)c1ccc2oc3cc(-c4noc(C(C)(C)C)n4)ccc3c2c1)C(=O)O` [Compound 277, 2-(7-(5-tert-butyl-1,2,4-oxadiazol-3-yl)dibenzo[b,d]furan-2-sulfonamido)-2-methylpropanoic acid] displayed a 50% inhibitory concentration (IC50) of 130 nM.
